Reference: patent publication US9635853B2, “Insecticidal compounds” (Syngenta Participations AG, priority 2013, dated 2017)

How the values were obtained:
Format in all cases: in vivo
Spodoptera littoralis = Spodoptera littoralis (Egyptian cotton leafworm) leaf disc test; conditions: foliar, 72 h, 200 ppm sprayed on cotton leaf discs, L1 larvae, mortality, feeding behavior, growth regulation 3 DAT
Text: Spodoptera littoralis (Egyptian cotton leafworm): Cotton leaf discs were placed on agar in a 24-well microtiter plate and sprayed with test solutions at an application rate of 200 ppm. After drying, the leaf discs were infested with 5 L1 larvae. The samples were checked for mortality, feeding behavior, and growth regulation 3 days after treatment (DAT).

Plutella xylostella = Plutella xylostella (Diamond back moth) artificial diet test; conditions: 144 h, 200 ppm (concentration in well 18 ppm), L2 larvae, 6 days, larval mortality and growth regulation
Method: (§1) Plutella xylostella (Diamond back moth): 24-well microtiter plate (MTP) with artificial diet was treated with test solutions at an application rate of 200 ppm (concentration in well 18 ppm) by pipetting. After drying, the MTP's were infested with L2 larvae (7-12 per well). After an incubation period of 6 days, samples were checked for larval mortality and growth regulation.

Diabrotica balteata = Diabrotica balteata (Corn root worm) artificial diet test; conditions: 120 h, 200 ppm (concentration in well 18 ppm), L2 larvae, 5 days, larval mortality and growth regulation
Method: as §1, with “Diabrotica balteata (Corn root worm): A” for “Plutella xylostella (Diamond back moth):”, “(6-10” for “(7-12”, “5” for “6”

Thrips tabaci = Thrips tabaci (Onion thrips) leaf disc test; conditions: foliar, 168 h, 200 ppm sprayed on sunflower leaf discs, population of mixed ages, 7 days, mortality
Method: Thrips tabaci (Onion thrips): Sunflower leaf discs were placed on agar in a 24-well microtiter plate and sprayed with test solutions at an application rate of 200 ppm. […] After an incubation period of 7 days, samples were checked for mortality.

Tetranychus urticae = Tetranychus urticae (Two-spotted spider mite) leaf disc test; conditions: foliar, 192 h, 200 ppm sprayed on bean leaf discs, mite populations of mixed ages, 8 days, egg, larval and adult mortality
Text: Tetranychus urticae (Two-spotted spider mite): Bean leaf discs on agar in 24-well microtiter plates were sprayed with test solutions at an application rate of 200 ppm. After drying, the leaf discs are infested with mite populations of mixed ages. 8 days later, discs are checked for egg mortality, larval mortality, and adult mortality.

Myzus persicae = Myzus persicae (Green peach aphid) leaf disc test; conditions: foliar, 144 h, 200 ppm sprayed on sunflower leaf discs, aphid population of mixed ages, 6 DAT, mortality
Method: Myzus persicae (Green peach aphid): Sunflower leaf discs were placed on agar in a 24-well microtiter plate and sprayed with test solutions at an application rate of 200 ppm. After drying, the leaf discs were infested with an aphid population of mixed ages. After an incubation period of 6 DAT, samples were checked for mortality.

Heliothis virescens = Heliothis virescens (Tobacco budworm) egg/artificial diet test; conditions: 96 h, 200 ppm (concentration in well 18 ppm), eggs on artificial diet, 4 days, egg mortality, larval mortality, growth regulation
Method: Heliothis virescens (Tobacco budworm): Eggs (0-24 h old) were placed in 24-well microtiter plate on artificial diet and treated with test solutions at an application rate of 200 ppm (concentration in well 18 ppm) by pipetting. After an incubation period of 4 days, samples were checked for egg mortality, larval mortality, and growth regulation.

Measured: pest or weed control at 200 ppm

CCc1cc(C(F)(C(F)(F)F)C(F)(F)F)cc(CC)c1NC(=O)c1cccc(N(CC)C(=O)c2ccncc2)c1F [Compound 4]
not listed: Heliothis virescens
≥ 80%: all other assays above

CCN(C(=O)c1cc[n+]([O-])cc1)c1cccc(C(=O)Nc2c(Br)cc(C(F)(C(F)(F)F)C(F)(F)F)cc2C2CC2)c1F [Compound 16]
≥ 80%: all assays above

CCN(C(=O)c1ccncc1)c1cccc(C(=O)Nc2c(Cl)cc(C(F)(C(F)(F)F)C(F)(F)F)cc2Cl)c1F [Compound 11]
≥ 80%: all assays above

CN(C(=O)c1ccncc1)c1cccc(C(=O)Nc2c(Br)cc(C(F)(C(F)(F)F)C(F)(F)F)cc2Br)c1F [Compound 8]
≥ 80%: all assays above

Cc1cc(C(F)(C(F)(F)F)C(F)(F)F)cc(Cl)c1NC(=O)c1cccc(N(C)C(=O)c2ccncc2)c1F [Compound 12]
≥ 80%: all assays above

CCN(C(=O)c1ccncc1)c1cccc(C(=O)Nc2c(C)cc(C(F)(C(F)(F)F)C(F)(F)F)cc2Cl)c1F [Compound 14]
≥ 80%: all assays above

CCN(C(=O)c1ccncc1)c1cccc(C(=O)Nc2c(Cl)cc(C(F)(C(F)(F)F)C(F)(F)F)cc2Br)c1F [Compound 1, N′-[3-[[2-bromo-6-chloro-4-[1,1,1,2,3,3,3-heptafluoro-prop-2-yl]phenyl]carbamoyl]-2-fluoro-phenyl]-N-ethyl-pyridine-4-carboxamide]
≥ 80%: all assays above

CN(C(=O)c1cc[n+]([O-])cc1)c1cccc(C(=O)Nc2c(Br)cc(C(F)(C(F)(F)F)C(F)(F)F)cc2Br)c1F [Compound 9]
≥ 80%: all assays above

CN(C(=O)c1ccncc1)c1cccc(C(=O)Nc2c(Cl)cc(C(F)(C(F)(F)F)C(F)(F)F)cc2Cl)c1F [Compound 10]
≥ 80%: all assays above

CCN(C(=O)c1ccncc1)c1cccc(C(=O)Nc2c(Br)cc(C(F)(C(F)(F)F)C(F)(F)F)cc2Br)c1F [Compound 6]
≥ 80%: all assays above

CCN(C(=O)c1ccncc1)c1cccc(C(=O)Nc2c(Br)cc(C(F)(C(F)(F)F)C(F)(F)F)cc2OC(F)F)c1F [Compound 7]
≥ 80%: all assays above

CCc1cc(C(F)(C(F)(F)F)C(F)(F)F)cc(Cl)c1NC(=O)c1cccc(N(CC)C(=O)c2ccncc2)c1F [Compound 13]
≥ 80%: all assays above

CCN(C(=O)c1cc[n+]([O-])cc1)c1cccc(C(=O)Nc2c(Br)cc(C(F)(C(F)(F)F)C(F)(F)F)cc2OC(F)F)c1F [Compound 17]
≥ 80%: all assays above

CCN(C(=O)c1ccncc1)c1cccc(C(=O)Nc2c(Br)cc(C(F)(C(F)(F)F)C(F)(F)F)cc2C2CC2)c1F [Compound 15]
≥ 80%: all assays above

CCN(C(=O)c1ccncc1)c1cccc(C(=O)Nc2c(C)cc(C(F)(C(F)(F)F)C(F)(F)F)cc2OC(F)F)c1F [Compound 19]
not listed: Heliothis virescens
≥ 80%: all other assays above

CCc1cc(C(F)(C(F)(F)F)C(F)(F)F)cc(CC)c1NC(=O)c1cccc(N(CC)C(=O)c2cc[n+]([O-])cc2)c1F [Compound 5]
not listed: Spodoptera littoralis | Heliothis virescens
≥ 80%: all other assays above

CN(C(=O)c1ccncc1)c1cccc(C(=O)Nc2c(Cl)cc(C(F)(C(F)(F)F)C(F)(F)F)cc2Br)c1F [Compound 3]
not listed: Heliothis virescens
≥ 80%: all other assays above

CCN(C(=O)c1cc[n+]([O-])cc1)c1cccc(C(=O)Nc2c(Cl)cc(C(F)(C(F)(F)F)C(F)(F)F)cc2Br)c1F [Compound 2, N′-[3-[[2-bromo-6-chloro-4-[1,1,1,2,3,3,3-heptafluoro-prop-2-yl]phenyl]carbamoyl]-2-fluoro-phenyl]-N-ethyl-1-oxido-pyridin-1-ium-4-carboxamide]
≥ 80%: all assays above

CCN(C(=O)c1ccncc1)c1cccc(C(=O)Nc2c(Cl)cc(C(F)(C(F)(F)F)C(F)(F)F)cc2OC(F)F)c1F [Compound 18]
not listed: Heliothis virescens
≥ 80%: all other assays above
